This assay concerns Drosophila melanogaster. The assay can be described thus: Effects of methylphenidate on rest (sleep) in flies, Drosophila Activity Monitoring System. It is filed as in vivo. The note with it: wild-type Canton-S virgin female flies; 0.5 mg/ml methylphenidate dissolved in the food; transferred two hours before lights-off; rest over the following 14 hours vs baseline; p<0.05. How it is done:
Wild-type Canton-S (CS) flies were placed into a 50 ml vial containing yeast, dark corn syrup and agar food. Each colony was housed at 25° C. with a relative humidity of 50% in a Forma Scientific incubator. The flies were maintained on a 12:12 light/dark cycle with “lights-on” commencing at 8:00 am and “lights-off” commencing at 8:00 pm to yield darkness. Virgin females were collected and maintained in 50 ml vials for one day. During the second day, flies were individually placed into glass tubes (65 mm in length, 5 mm I.D.) containing about lomm of fresh food and the tubes were placed into the Drosophila Activity Monitoring System (Trikinetics, Waltham, Mass.). The flies remained undisturbed for the following 48 hours. The amount and distribution of rest was evaluated during the third day to ensure that the flies had adapted to the apparatus as previously described in Shaw et. al., Science 287:1834-1837 (2000). On day 4, two hours before lights-off, flies were transferred to fresh glass tubes containing only standard laboratory food or to tubes with 0.5 mg/ml methylphenidate that had been dissolved in the food. The amount and distribution of rest during the following 14 hours was then evaluated.

Entries after “also recorded” stand apart in the source; their conditions may differ.

For the compound `COC(=O)C(c1ccccc1)C1CCCCN1` (stereo not shown) [methylphenidate], the “amount and distribution of rest” value is “rest was significantly reduced compared to baseline; also recorded: significant and substantial decrease in rest”.

For the origin of these results see patent US20030166213A1, “Methods for identifying compounds that modulate disorders related to nitric oxide/ cGMP-dependent protein kinase signaling” (priority 2000, published 2003).
